This is an account of results in patent publication EP1077981B1, “NOVEL CEPHALOSPORIN COMPOUNDS, PROCESSES FOR PREPARATION THEREOF AND ANTIMICROBIAL COMPOSITIONS CONTAINING THE SAME” (LG CHEMICAL LIMITED, priority 1998, dated 1999).

Holding throughout (experiment): MIC against standard strains (agar dilution)
Common to all, as to format: cell-based

The subject of test [1] is Pseudomonas aeruginosa 1912E. The conditions noted are these: Pseudomonas aeruginosa 1912E; Mueller-Hinton agar, 20 hours at 37°C; read-out: MIC. The procedure, abridged: (§1)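 Read-out is the lowest compound concentration preventing visible growth on Mueller-Hinton agar. Inocula of 10^7 cfu/mℓ were applied to plates containing 2-fold dilutions, then incubated 20 hours at 37°C.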

Test [2] relates to Staphylococcus epidermidi 887E. As to conditions: Staphylococcus epidermidi 887E; Mueller-Hinton agar, 20 hours at 37°C; read-out: MIC. The method, boiled down: as §1
The test system of test [3] is Escherichia coli TEM1 1193E. The conditions noted are these: TEM11193E, 20 h. The procedure, abridged:
as §1

A further test concerns Escherichia coli 3190Y. The conditions noted are these: Escherichia coli, 3190Y, 20 h. The procedure, abridged:
as §1

The test system of test [4] is Acinetobacter calcoaceticu 15473. As to conditions: Acinetobacter calcoaceticu 15473; Mueller-Hinton agar, 20 hours at 37°C; read-out: MIC. The procedure, abridged:
as §1

The test system of another test is Enterobacter cloacae P99. The conditions noted are these: Enterobacter cloacae P99; Mueller-Hinton agar, 20 hours at 37°C; read-out: MIC. The method, boiled down:
as §1

For test [5], the system named is Escherichia coli TEM3 3455E. The conditions noted are these: TEM33455E, 20 h. The procedure, abridged: as §1
In another test the test system is Escherichia coli 851E. The conditions noted are these: Escherichia coli, 851E, 20 h. The method, boiled down: as §1
Test [6] relates to Staphylococcus aureus giorgio. As to conditions: Staphylococcus aureus giorgio; Mueller-Hinton agar, 20 hours at 37°C; read-out: MIC. The procedure, abridged: as §1
The subject of test [7] is Citrobacter diversus 2046E. As to conditions: Citrobacter koseri; Citrobacter diversus 2046E; Mueller-Hinton agar, 20 hours at 37°C; read-out: MIC. The procedure, abridged: as §1
Test [8] relates to Morganella morganii 1375E. The conditions noted are these: Morganella morganii 1375E; Mueller-Hinton agar, 20 hours at 37°C; read-out: MIC. The method, boiled down:
as §1

As a reminder, the MIC is the lowest concentration that inhibits growth of the organism.

SMILES strings stand for the structures. ≈ marks a conversion by molar mass, not a printed value.

`CO/N=C(\C(=O)NC1C(=O)N2C(C(=O)O)=C(Sc3cc(N)nc(N)n3)CSC12)c1csc(N)n1` (centres unmarked) [Compound No. 25, 7-[(Z)-2-(2-amino-thiazol-4-yl)-2-methoxyimino-acetylamino]-3-(2,6-diamino-pyrimidin-4-ylsulfanyl)-8-oxo-5-thia-1-azabicyclo[4,2,0]oct-2-ene-2-carboxylic acid]: the minimum inhibitory concentration (MIC) in test [1] was 16 µg/mL (≈ 30.6 µM); in test [2] it was 8 µg/mL (≈ 15.3 µM); in [3], 0.25 µg/mL (≈ 0.477 µM); against Escherichia coli 3190Y, 0.031 µg/mL (≈ 0.0592 µM); in test [4] it was 64 µg/mL (≈ 122 µM); with Enterobacter cloacae P99 it was more than 64 µg/mL. For the same molecule, the minimal inhibitory concentration (MIC) was 8 µg/mL (≈ 15.3 µM) in [5]; 0.063 µg/mL (≈ 0.12 µM) against Escherichia coli 851E; 0.5 µg/mL (≈ 0.955 µM) in test [6]; more than 64 µg/mL in [7]; 0.13 µg/mL (≈ 0.248 µM) in [8].
